According to publication PMC9249104 (Nature chemical biology, 2021):
“Also recorded” adds a separate entry of the source. Read-outs that look alike come from different tables or passages of the source.

Key:
[1] = test system: MCF-7 cells; experiment: Cell viability; type: cell-based; conditions: MCF-7, 72 hours
[2] = test system: p4EBP1 T37/T46; experiment: FK506 competition, p4EBP1 T37/T46 in MDA-MB-468 cells; type: cell-based
[3] = test system: AKT S473 phosphorylation (mTORC2); experiment: AlphaLISA/MSD pAKT S473 in MDA-MB-468 cells; type: cell-based
[4] = biological target: PIK3CD (Homo sapiens, UniProt O00329); experiment: KiNativ kinome screen in Ramos cells: PIK3CD; conditions: read-out: inhibition of PIK3CD
Chain of PIK3CD (O00329 whole entry): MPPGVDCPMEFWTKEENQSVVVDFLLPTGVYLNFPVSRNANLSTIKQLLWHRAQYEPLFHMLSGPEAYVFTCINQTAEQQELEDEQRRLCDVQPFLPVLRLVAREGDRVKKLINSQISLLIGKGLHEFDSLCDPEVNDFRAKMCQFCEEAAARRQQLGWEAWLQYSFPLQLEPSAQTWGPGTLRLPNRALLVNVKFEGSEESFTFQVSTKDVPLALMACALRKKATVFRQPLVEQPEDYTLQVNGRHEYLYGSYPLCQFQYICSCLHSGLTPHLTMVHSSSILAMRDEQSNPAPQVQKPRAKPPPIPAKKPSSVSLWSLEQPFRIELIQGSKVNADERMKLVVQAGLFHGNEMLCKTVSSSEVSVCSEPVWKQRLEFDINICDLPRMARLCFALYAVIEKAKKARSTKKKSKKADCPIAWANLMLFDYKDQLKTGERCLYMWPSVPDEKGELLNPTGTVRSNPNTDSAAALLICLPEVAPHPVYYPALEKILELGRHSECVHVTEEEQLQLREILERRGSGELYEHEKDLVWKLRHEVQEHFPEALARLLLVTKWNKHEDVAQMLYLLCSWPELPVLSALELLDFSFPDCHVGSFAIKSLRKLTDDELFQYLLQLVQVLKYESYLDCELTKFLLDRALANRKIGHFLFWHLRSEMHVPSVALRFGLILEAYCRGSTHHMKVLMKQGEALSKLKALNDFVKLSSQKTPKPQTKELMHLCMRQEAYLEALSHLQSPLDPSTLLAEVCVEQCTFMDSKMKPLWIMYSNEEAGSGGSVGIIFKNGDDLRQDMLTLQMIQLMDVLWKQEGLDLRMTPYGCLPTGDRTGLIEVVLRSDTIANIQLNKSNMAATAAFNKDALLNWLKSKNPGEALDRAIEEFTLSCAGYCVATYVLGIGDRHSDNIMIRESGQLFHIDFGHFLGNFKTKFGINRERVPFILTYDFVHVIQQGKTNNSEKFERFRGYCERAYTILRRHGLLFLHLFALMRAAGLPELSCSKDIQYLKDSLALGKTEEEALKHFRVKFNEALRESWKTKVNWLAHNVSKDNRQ
Chain of PIK3CD (P27986 whole entry partner): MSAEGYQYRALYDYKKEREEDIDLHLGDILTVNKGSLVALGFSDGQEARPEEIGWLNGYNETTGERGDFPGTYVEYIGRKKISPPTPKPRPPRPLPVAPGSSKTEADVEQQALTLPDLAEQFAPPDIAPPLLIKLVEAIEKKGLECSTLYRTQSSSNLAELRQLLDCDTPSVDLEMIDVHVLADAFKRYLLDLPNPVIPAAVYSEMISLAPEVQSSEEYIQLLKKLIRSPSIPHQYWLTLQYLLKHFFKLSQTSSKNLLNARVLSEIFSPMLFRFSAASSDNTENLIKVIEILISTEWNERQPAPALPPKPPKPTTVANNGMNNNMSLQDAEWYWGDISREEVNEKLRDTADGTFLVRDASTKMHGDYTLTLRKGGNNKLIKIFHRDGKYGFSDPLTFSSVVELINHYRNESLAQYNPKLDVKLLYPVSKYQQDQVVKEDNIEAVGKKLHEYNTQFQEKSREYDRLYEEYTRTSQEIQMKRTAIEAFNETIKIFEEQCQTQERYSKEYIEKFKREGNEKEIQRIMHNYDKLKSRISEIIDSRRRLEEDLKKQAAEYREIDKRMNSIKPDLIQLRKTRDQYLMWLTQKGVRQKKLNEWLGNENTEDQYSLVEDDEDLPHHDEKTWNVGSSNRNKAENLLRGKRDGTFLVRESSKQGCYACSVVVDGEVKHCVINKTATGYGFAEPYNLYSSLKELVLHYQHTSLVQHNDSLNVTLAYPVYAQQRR

[5] = Two-day glucose tolerance test; type: in vivo; conditions: mice, one hour after inhibitor administration
[6] = MCF-7 subcutaneous xenograft: body weight; conditions: MCF-7 xenograft mice; bi-steric inhibitors ip once weekly, MLN0128 po daily
[7] = test system: 4EBP1 T37/T46 phosphorylation (mTORC1); experiment: AlphaLISA/MSD p4EBP1 T37/T46 in MDA-MB-468 cells; type: cell-based
[8] = test system: mTORC1 signaling (p4EBP1 T37/T46); experiment: p4EBP1 T37/T46 in parental and FKBP12 knockout NCI-H358 cells; type: cell-based
[9] = test system: 4EBP1/2 WT and 4EBP1/2 DKO MEFs; experiment: Cell growth of E1A/Ras-transformed 4EBP1/2 WT and DKO MEFs; type: cell-based, mouse; conditions: 72 hours
[10] = test system: mTORC1 over mTORC2; experiment: mTORC1/2 selectivity: potencies for inhibition of 4EBP1 T37/T46; type: cell-based; conditions: MDA-MB-468; p4EBP1 T37/T46 vs pAKT S473 potencies
[11] = test system: S6K T389 phosphorylation (mTORC1); experiment: AlphaLISA pS6K T389 in MDA-MB-468 cells; type: cell-based
[12] = test system: kinases other than mTOR; experiment: KiNativ kinome screen in Ramos cells: kinases other than mTOR; conditions: 1 µM
[13] = test system: pAKT S473; experiment: Immunoblot of MCF-7 cells overexpressing Myr-AKT or vector control; type: cell-based; conditions: 4 hours; for effect on pAKT S473 in Myr-AKT cells: MCF-7 Myr-AKT cells, BiS-31x up to 100 nM; for effect on pAKT S473 in parental cells: MCF-7 parental cells
[14] = test system: mTOR FRB mutation (F2108L); experiment: Immunoblot of parental MCF-7 and MCF-7 cells harboring mTOR F2108L; type: cell-based; conditions: MCF-7, four hours
[15] = test system: pAKT S473; experiment: Immunoblot of MCF-7 and BT474 cells: pAKT S473; type: cell-based; conditions: 10 nM, by 4 hours
[16] = test system: pS6K T389, pAKT S473, cyclin D1; experiment: Immunoblot of MDA-MB-468 and MCF-7 sgGFP and sg4EBP1 cells; type: cell-based; conditions: 4 hours
[17] = test system: HER3 expression and phosphorylation; experiment: Immunoblot of MCF-7 and BT474 cells: HER3; type: cell-based; conditions: 10 nM, by 24 hours
[18] = test system: global protein synthesis; experiment: Puromycin incorporation in MCF-7 cells; type: cell-based; conditions: MCF-7, 4 hours
[19] = test system: MDA-MB-468 sgGFP and sg4EBP1 cells; experiment: Cell viability of MDA-MB-468 sgGFP and sg4EBP1 cells; type: cell-based; conditions: for concentration suppressing proliferation: five days
[20] = test system: eIF4F complex formation; experiment: In vitro cap-binding affinity assay, MDA-MB-468 sgGFP and sg4EBP1 cells; type: cell-based; conditions: 3 nM, 4 and 24 hours, MDA-MB-468 sgGFP cells
[21] = test system: mTORC1; conditions: cited from earlier work
[22] = test system: AKT S473 phosphorylation; experiment: Immunoblot of PC3 cells, 4 or 24 hours; type: cell-based
[23] = biological target: FKBP12 (Homo sapiens, UniProt P62942); experiment: TR-FRET competitive binding assay for FKBP12
Chain of FKBP12 (P62942 whole entry): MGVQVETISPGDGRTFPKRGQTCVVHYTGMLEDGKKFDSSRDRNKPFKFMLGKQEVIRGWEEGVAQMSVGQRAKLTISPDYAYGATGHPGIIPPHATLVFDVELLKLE

[24] = mouse, in vivo

Compound: CC(C)n1nc(-c2ccc3oc(N)nc3c2)c2c(N)ncnc21 [MLN0128]
- GI50 relative to BiS-NS and BiS-13x (less potent) [1]: 10 fold
- impact of addition of FK506 on inhibitory activity [2]: Neither FKBP12 knockout nor addition of FK506 had an impact
- effect on pAKT S473 [3]: inhibited
- inhibition at 1 µM [4]: 69%
- return of glucose levels to baseline after the first glucose challenge [5]: delayed
- maximum loss in body weight [6]: up to 15%
- effect on p4EBP1 T37/T46 [7]: inhibited
- impact of FKBP12 knockout on inhibitory activity [8]: Neither FKBP12 knockout nor addition of FK506 had an impact
- sensitivity to cell growth inhibition in 4EBP1/2 DKO MEFs compared to WT MEFs [9]: a similar pattern was observed

Compound: CC(C)n1nc(-c2cc3cc(O)ccc3[nH]2)c2c(N)ncnc21 [PP242]
- effect on pAKT S473 [3]: inhibited
- effect on p4EBP1 T37/T46 [7]: inhibited

Compound: CO[C@H]1C[C@@H]2CC[C@@H](C)[C@@](O)(O2)C(=O)C(=O)N2CCCC[C@H]2C(=O)O[C@H]([C@H](C)C[C@@H]2CC[C@@H](O)[C@H](OC)C2)C[C@@H](OC)[C@H](C)/C=C(\C)[C@@H](O)[C@@H](OC)/C(=N/OCc2cn(CCOCCOCCOCCOCCOCCOCCOCCOCCC(=O)NCCCCn3nc(-c4ccc5oc(N)nc5c4)c4c(N)ncnc43)nn2)[C@H](C)C[C@H](C)/C=C/C=C/C=C/1C [RMC-4529]
- selectivity for mTORC1 over mTORC2 [10]: 31 fold
- IC50 ([11]; read-out: S6K IC50): 0.98 nM
- interactions with kinases other than mTOR [12]: No interactions
- effect on pAKT S473 in Myr-AKT cells [13]: did not inhibit
- effect on pAKT S473 in parental cells [13]: increase
- GI50 relative to BiS-NS and BiS-13x (less potent) [1]: 10 fold
- reduction in potency in cells with mTOR FRB mutation (F2108L) [14]: 10 fold
- maximum loss in body weight [6]: 5%
- IC50 ([7]; read-out: 4EBP1 T37/T46 IC50): 6.37 nM

Compound: CO[C@@H]1C[C@@H]2CC[C@@H](C)[C@@](O)(O2)C(=O)C(=O)N2CCCC[C@@H]2C(=O)O[C@H]([C@H](C)C[C@H]2CC[C@H](OCCOCc3cn(CCOCCOCCOCCOCCOCCOCCOCCOCCC(=O)NCCCCn4nc(-c5ccc6oc(N)nc6c5)c5c(N)ncnc54)nn3)[C@H](OC)C2)CC(=O)[C@H](C)/C=C(\C)[C@H](O)[C@@H](OC)C(=O)[C@H](C)C[C@H](C)/C=C/C=C/C=C/1C [RapaLink-1]
- selectivity for mTORC1 over mTORC2 [10]: three- to four; also recorded: approximately four
- effect on pAKT S473 [15]: abolished
- effect on pS6K T389 [11]: equipotent
- effect on pS6K T389 and pAKT S473 ([16]; control (sgGFP) and sg4EBP1 cells): suppressed pS6K T389 and pAKT S473 effectively and equivalently
- effect on cyclin D1 levels ([16]; sg4EBP1 cells): unaffected
- effect on cyclin D1 levels ([16]; sgGFP cells): reduced
- effect on pAKT S473 in Myr-AKT cells [13]: inhibited
- effect on pAKT S473 in parental cells [13]: inhibited
- effect on HER3 expression and phosphorylation [17]: increased
- effect on global protein synthesis [18]: suppressed
- sensitivity of sg4EBP1 cells compared to sgGFP cells (less sensitive) ([19]; MDA-MB-468, five days): three
- concentration suppressing proliferation ([19]; MDA-MB-468 sg4EBP1 cells): 0.3 nM
- concentration suppressing proliferation ([19]; MDA-MB-468 sgGFP cells): 0.1 nM
- displacement of eIF4G by 4EBP1 in the cap-binding complexes [20]: significant displacement
- effect on p4EBP1 T37/T46 [7]: equipotent
- selectivity for mTORC1 [21]: three- to four

Compound: CO[C@H]1C[C@@H]2CC[C@@H](C)[C@@](O)(O2)C(=O)C(=O)N2CCCC[C@H]2C(=O)O[C@H]([C@H](C)C[C@@H]2CC[C@@H](O)[C@H](OC)C2)CC(=O)[C@H](C)/C=C(\C)[C@@H](O)[C@@H](OC)C(=O)[C@H](C)C[C@H](C)/C=C/C=C/C=C/1C [Rapamycin]
- effect on pS6K T389 [11]: inhibited
- effect on AKT S473 phosphorylation [22]: significant inhibition
- effect on pAKT S473 [3]: increased

Compound: RMC-4627
- selectivity for mTORC1 over mTORC2 [10]: 13 fold
- effect on pS6K T389 [11]: equipotent
- affinity for FKBP12 relative to rapamycin (lower) [23]: approximately 3 fold
- effect on p4EBP1 T37/T46 [7]: equipotent
- maximum loss in body weight [24]: 10%
